Experimental data from the NIST ThermoML archive (doi:10.1016/j.jct.2009.01.010).
Several values for one entry are separate records, joined by “and”; a condition that tells them apart may be missing. Equal values may be shown once.

Key:
[1] = refractive index (Na D-line) (dimensionless); xn = mol fraction of the nth substance listed; settings: 298.15 K, 101 kPa, Liquid, Abbe refractometer
[2] = xn = mol fraction of the nth substance listed; settings: 298.15 K, 101 kPa, Liquid; for speed of sound: Linear variable-path acoustic interferometer; for mass density: Pycnometric method
[3] = refractive index (Na D-line) (dimensionless); settings: 298.15 K; 101.33 kPa; Liquid; Abbe refractometer
[4] = 298.15 K, 101 kPa, Liquid; for speed of sound: Linear variable-path acoustic interferometer; for mass density: Pycnometric method

CCOCCO [2-ethoxyethan-1-ol] + O
Settings	mass density, [2] [kg/m3]	refractive index, [1]	speed of sound, [2] [m/s]
x1 = 0.0092	996.93	1.3389	1541.3
x1 = 0.0177	997.02	1.3415	1553.1
x1 = 0.025	997.2	1.3442	1575.6
x1 = 0.0502	998.06	1.3542	1626.9
x1 = 0.0767	998.24	1.3628	1649.6
x1 = 0.1024	996.67	1.3709	1646.5
x1 = 0.183	988.37	1.3854	1567.6
x1 = 0.299	974.41	1.394	1517.4
x1 = 0.4058	963.11	1.3979	1458.1
x1 = 0.5059	954.22	1.4012	1415.2
x1 = 0.5996	947.01	1.4025	1385.7
x1 = 0.706	940.07	1.4039	1359.6
x1 = 0.8431	933.47	1.4046	1330.4
x1 = 0.8716	932.35	1.4049	1325.6
x1 = 1	925.39	1.4058	1302.5

CCOCCO [2-ethoxyethan-1-ol]
Settings	mass density [kg/m3]	refractive index	speed of sound [m/s]
[3]	–	1.4058	–
[4]	925.39	–	1302.5

O [water] + COCCOCCO
x2 = 0
Settings	mass density [kg/m3]	refractive index
[1]	–	1.333
[2]	999.704	–

COCCO [2-methoxyethan-1-ol] + O
Settings	mass density, [2] [kg/m3]	refractive index, [1]	speed of sound, [2] [m/s]
x1 = 0.0202	999.08	1.34	1546.5
x1 = 0.04	1001.08	1.346	1581
x1 = 0.0539	1002.4	1.35	1600.9
x1 = 0.0822	1004.71	1.357	1636.5
x1 = 0.101	1005.84	1.361	1643.7
x1 = 0.1509	1007.02	1.37	1654.7
x1 = 0.2036	1005.67	1.378	1641.7
x1 = 0.3025	999.82	1.386	1587.3
x1 = 0.4033	992.74	1.391	1532.3
x1 = 0.5009	985.91	1.394	1488.5
x1 = 0.5514	982.57	1.395	1470.9
x1 = 0.6976	974	1.396	1418.8
x1 = 0.7855	969.57	1.398	1392
x1 = 0.889	964.87	1.398	1369.3
x1 = 1	960.23	1.4002	1341.7

COCCOCCO [2-(2-methoxyethoxy)ethanol]
Settings	mass density [kg/m3]	refractive index	speed of sound [m/s]
[3]	–	1.425	–
[4]	1016.95	–	1422.6

CCOCCOCCO [3,6-dioxa-1-octanol] + O
Settings	mass density, [2] [kg/m3]	refractive index, [1]	speed of sound, [2] [m/s]
x1 = 0.013	1001.37	1.3424	1562
x1 = 0.025	1005.93	1.3515	1602
x1 = 0.05	1013.24	1.3654	1656
x1 = 0.06	1015.27	1.3695	1670.5
x1 = 0.076	1017.84	1.376	1670
x1 = 0.101	1020.05	1.3837	1658
x1 = 0.152	1019.56	1.396	1621
x1 = 0.202	1017.51	1.4028	1601.9
x1 = 0.302	1011.81	1.4108	1549.5
x1 = 0.402	1005.59	1.414	1500
x1 = 0.519	999.21	1.4198	1460
x1 = 0.59	996.2	1.4203	1442
x1 = 0.775	990.78	1.4228	1412
x1 = 0.852	988.76	1.4235	1398
x1 = 1	984.6	1.425	1378

COCCOCCO [2-(2-methoxyethoxy)ethanol] + O
Settings	mass density, [2] [kg/m3]	refractive index, [1]	speed of sound, [2] [m/s]
x1 = 0.013	1002.42	1.341	1546
x1 = 0.026	1008.21	1.349	1582
x1 = 0.051	1017.19	1.36	1640
x1 = 0.064	1021.22	1.366	1646.7
x1 = 0.074	1023.92	1.37	1662
x1 = 0.101	1029.24	1.378	1674
x1 = 0.15	1034.64	1.39	1674
x1 = 0.187	1035.66	1.396	1660
x1 = 0.305	1034.8	1.408	1606
x1 = 0.401	1031.91	1.412	1562
x1 = 0.506	1028.25	1.415	1514
x1 = 0.646	1024.01	1.418	1474
x1 = 0.766	1021.27	1.419	1454
x1 = 0.895	1018.65	1.422	1442
x1 = 1	1016.95	1.425	1422.6

O [water] + CCOCCO
x2 = 0
Settings	mass density [kg/m3]	refractive index
[1]	–	1.3325
[2]	999.704	–

O [water]
Settings	mass density [kg/m3]	refractive index
[3]	–	1.333 and 1.3325
[4]	999.704	–

O [water] + COCCO
x2 = 0
Settings	mass density [kg/m3]	refractive index
[1]	–	1.333
[2]	999.704	–

CCOCCOCCO [3,6-dioxa-1-octanol]
Settings	mass density [kg/m3]	refractive index	speed of sound [m/s]
[3]	–	1.425	–
[4]	984.6	–	1378

COCCO [2-methoxyethan-1-ol]
Settings	mass density [kg/m3]	refractive index	speed of sound [m/s]
[3]	–	1.4002	–
[4]	960.23	–	1341.7

O [water] + CCOCCOCCO
x2 = 0
Settings	mass density [kg/m3]	refractive index
[1]	–	1.3325
[2]	999.704	–
